# Measured values from patent publication US20220096431A1, “PHARMACEUTICAL COMPOSITION AND METHOD FOR PREVENTING, TREATING AND DIAGNOSING A NEURODEGENERATIVE DISEASE” (BUDDHIST TZU CHI MEDICAL FOUNDATION, priority 2020, published 2022).
# Key:
# [1] = tested on: Notch signaling; conditions: background; cited from earlier work
# [2] = tested on: 3xTg AD mice; assay: Morris water maze test in AD-3xTg mice; assay type: in vivo
# Procedure: Red dot, starting point of the swim; green dot, end point of the swim.
# N=4 for wild-type and 10 mg/kg donepezil-treated 3xTg mice. N=6 for vehicle-treated 3xTg mice, 60 mg/kg n-BP-treated 3xTg mice, and 120 mg/kg n-BP-treated 3xTg mice. *p-value<0.05, **p-value<0.01 (Student's t-test). […] After 4-12 months, the B6 (C57/BL6) control mice have no AP accumulation (Green color).
# The mice behavioral experiment using Morris water maze is a classical test to detect short-term memory and complex memory. Through its behavior, it can be determined whether there is a difference in memory after drug treatment. […] Two sessions were conducted on Day 1 as follows: (1) mice were placed in the swimming pool to adapt to the environment for a training duration of 120 seconds; (2) a hidden rest platform was added to the pool at a precise location in the northwest corner of the pool (blue diamond in the east; red circle in the west and yellow triangle in the south as shown in FIG. 7G) and the mice were allowed for to swim in the pool for a duration of another 120 seconds. If the rescue platform was not found by the mouse within the allocated time, the mouse was guided to the platform. The test for finding the rescue platform is carried out for the next four consecutive days, with each session lasting 90 seconds. The result is collected and analyzed.
# [3] = tested on: SH-SY5Y; assay: Aβ1-42 poisoning experiment in SH-SY5Y cells (MTT); assay type: cell-based, human; conditions: n-butylidenephthalide 100 μM, vitamin C 200 μM, alone or in combination, Aβ1-42 1 μM
# Source text: Then, the cell viability is detected by a cell survival test using (3-(4,5-dimethylthiazol-2-yl)-2,5-diphenyltetrazolium bromide (MTT) assay.
# [4] = tested on: PSEN-1, PSEN-2, Aβ1-42 and NICD in C6-C99 cells; assay: Western blotting of amyloid-related proteins in C6-C99 cells; assay type: cell-based; conditions: C6-C99 cells transfected with miR-29b-2-5p mimic; compared with control cells; n=3
# Source text: FIG. 3B to FIG. 3E are the quantitative results of the Western blotting analysis of PSEN-1, PSEN-2, β-amyloid 1-42 (Aβ1-42) and NICD in FIG. 3A, respectively (p*<0.05, p**<0.01). The C6-C99 cells used in FIGS. 3A to 3E are glioma cells having a fragment of human amyloid precursor protein (APP). This fragment is a peptide fragment with 99 amino acids (APP-C99), which can express large amounts of PSEN-1, PSEN-2, and Aβ 1-42 after activation by cumate.
# Western blotting is used to detect the expression levels of amyloid-related proteins, including PSEN-1, PSEN-2, and β-amyloid 1-42 (Aβ1-42), while simultaneously detect the expression level of Notch protein (Notch intracellular domain, NICD), which is an indicator of drug safety. If the Notch protein is not affected, then drug safety is indicated.
# APP-C99 was transfected into C6 cells with the C99 peptide through cumate-inducible system activation.
# [5] = tested on: 3′-UTR of PSEN-1; assay: Dual luciferase assay with PSEN-1 3′-UTR reporter constructs in SH-SY5Y cells; assay type: cell-based, human; conditions: 50 nM miR-29b-2-5p
# Procedure: The relative ratios of Renilla and firefly luciferase activity were measured.
# The specificity and inhibitory effect of miRNA-29b-2-5p on the specific sequence of PSEN-1 can be confirmed by a dual luciferase assay. The dual luciferase assay includes two luminescence proteins, namely firefly luciferase (molecular weight 61 kDa, emission wavelength at about 560 nm) isolated from firefly (Photlnus pyralls) and Renilla luciferase (molecular weight 31 kDa, emission wavelength at about 480 nm) isolated from Renilla reniformis, which are combined with the sequence to be analyzed and cloned into a vector for amplification. After transfection into cells, the cells emit luminescence. To investigate the influence of these complementary sites, neuroblastoma cell line (SH-SY5Y) as shown in FIG. 2D is used as the cell model and 2 constructs containing continuous complementary (wild type) and noncomplementary (mutant) target site were designed as shown in FIG. 2E. The constructs were then transfected with a miR-29b-2-5p mimic into the SH-SY5Y cell line. The present disclosure uses three different PSEN-1 sequences for dual luciferase analysis, including the wild-type 3′-UTR sequence of PSEN-1, the site 2 mutant having a mutation at site 2 sequence of PSEN-1 that is predicted to be complementary to miRNA-29b-2-5p and double mutant in which both the site 1 and site 2 sequences, which are the sequences of PSEN-1 predicted to be complementary to miRNA-29b-2-5p, are mutated.
# [6] = tested on: lnc-CYP3A43-2; assay: Biotin-based pulldown assay with real-time PCR; conditions: real-time PCR of miRNA; n=3
# Source text: Then, a biotin-based pulldown assay was used to validate this interaction. The result shown in FIG. 6H indicates the lnc-CYP3A43-2 can affect target miR-29b-2-5p (41.84-fold).
# [7] = tested on: PSEN-1, PSEN-2, Aβ1-42 and NICD in C6-C99 cells; assay: Western blotting of amyloid-related proteins in C6-C99 cells; assay type: cell-based; conditions: C6-C99 cells transfected with miR-29b-2-5p mimic, compared with control cells, n=3
compound,measurement,setting,value
CC(C)[C@H](O)C(=O)N[C@@H](C)C(=O)N[C@@H]1C(=O)N(C)CCc2ccccc21 [LY450139],Adverse reactions,[1],causes skin tumors and differentiation of intestinal epithelial cell
same,Effect on Notch signaling,[1],damages Notch signaling
"COc1cc2c(cc1OC)C(=O)C(CC1CCN(Cc3ccccc3)CC1)C2 (stereo not shown) [donepezil, reference compound]",Locating and arriving at the resting platform,"[2]; 120 mg/kg n-BP, donepezil as positive control",able to quickly locate and arrive at the resting platform
same,Time required to find the platform,"[2]; Day 5, 120 mg/kg n-BP, 10 mg donepezil/kg, vs untreated 3xTg mice",significantly lower
"O=C1O[C@H]([C@@H](O)CO)C(O)=C1O [vitamin C, ascorbic acid, reference compound]","Cell survival, protection against Aβ1-42 damage",[3],has an effect on increasing cell survival
"miR-29b-2-5p: mature miRNA-29b-2-5p nucleic acid, sequence cugguuucacaugguggcuuag (SEQ ID NO.: 1); used as mimic (CUGGUUUCACAUGGUGGCUUAG; listed as RNA, chemistry not given here; listed as Homo sapiens)",PSEN1 expression,[4],100%±19.31%
same,"Luminescence of reporter, PSEN-1 double site mutant",[5],abolished the inhibitory effect
same,"Luminescence of reporter, PSEN-1 site 2 mutant",[5],abolished the inhibitory effect
same,"Luminescence of reporter, wild type 3′-UTR of PSEN-1",[5],decreased the expression of the reporter
same,"Luminescence of reporter, PSEN-1 double site mutant",[5]; listed as miRNA-29b-5p,no significant difference in the luminescence emitted
same,"Luminescence of reporter, PSEN-1 site 2 mutant",[5]; listed as miRNA-29b-5p,no significant difference in the luminescence
same,"Luminescence of reporter, wild type 3′-UTR of PSEN-1",[5]; listed as miRNA-29b-5p,the luminescence emitted was inhibited
same,miR-29b-2-5p in lnc-CYP3A43-2 pulldown,[6],41.84 fold
same,Aβ1-42 expression,[7],48.75%±26.77%
same,Aβ1-42 expression,[7]; listed as miRNA-29b-2-5p,decreased
same,PSEN1 expression,[7]; listed as miRNA-29b-2-5p,decreased
